The values below come from US20100305120A1, “COMPOUNDS FOR TREATING MUSCULAR DYSTROPHY” (BIOMARIN IGA LIMITED, priority 2008, published 2010).

The structures appear in SMILES notation.

In the experiment the test system is Utrophin A promoter linked to a luciferase reporter gene. The experiment is described as follows: Luciferase reporter assay (murine H2K cells), H2K/mdx/Utro A reporter cell line. The format is cell-based. To be noted: 48 h; test compound concentration 10 μM; mdx mouse H2K Utrophin A reporter cells; read-out: Activity (luciferase level relative to control). As for the experimental part: Luciferase Reporter Assay (Murine H2K Cells)
The cell line used for the screen is an immortalized mdx mouse H2K cell line that has been stably transfected with a plasmid containing ≈5 kb fragment of the Utrophin A promoter including the first untranslated exon linked to a luciferase reporter gene.
Under conditions of low temperature and interferon containing media, the cells remain as myoblasts. These are plated into 96 well plates and cultured in the presence of compound for three days. The level of luciferase is then determined by cell lysis and reading of the light output from the expressed luciferase gene utilising a plate luminometer.
Luciferase Assay for 96 Well Plates
The H2K/mdx/Utro A reporter cell line cells were plated out into 96 well plates (Falcon 353296, white opaque) at a density of approximately 5000 cells/well in 190 μl normal growth medium. The plates were then incubated at 33° C. in the presence of 10% CO2 for 24 hrs.
Compounds were dosed by adding 10 μl of diluted compound to each well giving a final concentration of 10 μM (where a different final concentration was required, the amount of compound solution added was amended accordingly). The plates were then incubated for a further 48 hrs. Cells were then lysed in situ following the manufacture's protocols (Promega Steady-Glo Luciferase Assay System(E2520). Then counted for 10 seconds using a plate luminometer (Victor1420).
Compounds for screening were stored at −20° C. as 10 mM stocks in 100% DMSO until required.
Biological activity as assessed using the luciferase reporter assay in murine H2K cells, and the results are shown in Table 1, which also lists the concentration of the test compound solution in μM.
(A reporter such as luciferase makes a cellular process visible.)
In the case of `CON(C)S(=O)(=O)c1ccc(Cn2nc(C(=O)Nc3nc4ccccc4s3)c3ccccc32)cc1` [Compound 1, N-(benzo[d]thiazol-2-yl)-1-(4-(N-methoxy-N-methylsulfamoyl)benzyl)-1H-indazole-3-carboxamide], the activity at 10 µM was less than 200%.

In the case of `COc1ccc(OC)c(NC(=O)Nc2nn(Cc3ccc(COc4ccc5c(c4)OCO5)cc3)c3ccc(C(F)(F)F)cc23)c1` [Compound 2, 1-(1-(4-((benzo[d][1,3]dioxol-5-yloxy)methyl)benzyl)-5-(trifluoromethyl)-1H-indazol-3-yl)-3-(2,5-dimethoxyphenyl)urea], the activity at 10 µM is less than 200%. Turning to `CS(=O)(=O)c1ccc(Cn2nc(C(=O)Nc3nccs3)c3ccccc32)cc1` [Compound 3, 1-(4-(methylsulfonyl)benzyl)-N-(thiazol-2-yl)-1H-indazole-3-carboxamide], the activity at 10 µM is less than 200%. The figure for `CS(=O)(=O)c1ccc(Cn2nc(C(=O)Nc3ccc4c(c3)OCO4)c3ccccc32)cc1` [Compound 4, N-(benzo[d][1,3]dioxol-5-yl)-1-(4-(methylsulfonyl)benzyl)-1H-indazole-3-carboxamide] is 301 to 400%; for `COc1ccc(NC(=O)c2nn(CCCOc3ccccc3)c3ccccc23)cc1` [Compound 5, N-(4-methoxyphenyl)-1-(3-phenoxypropyl)-1H-indazole-3-carboxamide] it is less than 200%.

Turning to `C#CCN(C)S(=O)(=O)c1ccc(Cn2nc(C(=O)Nc3ccc(N4CCCCC4)cc3)c3ccccc32)cc1` [Compound 6, 1-(4-(N-methyl-N-(prop-2-ynyl)sulfamoyl)benzyl)-N-(4-(piperidin-1-yl)phenyl)-1H-indazole-3-carboxamide], the activity at 10 µM was 301 to 400%. For `CCN(CC)S(=O)(=O)c1ccc(Cn2nc(C(=O)Nc3nc4ccccc4s3)c3ccccc32)cc1` [Compound 7, N-(benzo[d]thiazol-2-yl)-1-(4-(N,N-diethylsulfamoyl)benzyl)-1H-indazole-3-carboxamide], the activity at 10 µM was less than 200%.

Take `COc1ccc2c(c1)c(C(=O)Nc1ccc(N3CCCCC3)cc1)nn2Cc1ccc(S(=O)(=O)N(C)OC)cc1` [Compound 8, 5-methoxy-1-(4-(N-methoxy-N-methylsulfamoyl)benzyl)-N-(4-(piperidin-1-yl)phenyl)-1H-indazole-3-carboxamide]: the activity at 10 µM is less than 200%. For `O=C(Nc1cccc(F)c1)Nc1nn(Cc2ccc(COc3ccc4c(c3)OCO4)cc2)c2ccc(C(F)(F)F)cc12` [Compound 9, 1-(1-(4-((benzo[d][1,3]dioxol-5-yloxy)methyl)benzyl)-5-(trifluoromethyl)-1H-indazol-3-yl)-3-(3-fluorophenyl)urea], the activity at 10 µM was less than 200%. For `CCN(CC)S(=O)(=O)c1ccc(Cn2nc(C(=O)Nc3ccc(N4CCCCC4)cc3)c3ccccc32)cc1` [Compound 10, 1-(4-(N,N-diethylsulfamoyl)benzyl)-N-(4-(piperidin-1-yl)phenyl)-1H-indazole-3-carboxamide], the activity at 10 µM lay in the range of 201 to 300%.

Turning to `COC(=O)c1ccc(NC(=O)Nc2nn(Cc3ccc(COc4cccc(OC)c4)cc3)c3ccccc23)cc1` [Compound 11, methyl 4-(3-(1-(4-((3-methoxyphenoxy)methyl)benzyl)-1H-indazol-3-yl)ureido)benzoate], the activity at 10 µM was less than 200%. Turning to `COc1cccc(OC)c1NC(=O)Nc1nn(Cc2ccc(C(F)(F)F)cc2)c2ccccc12` [Compound 12, 1-(2,6-dimethoxyphenyl)-3-(1-(4-(trifluoromethyl)benzyl)-1H-indazol-3-yl)urea], the activity at 10 µM was less than 200%.

In the case of `Cc1ccc2c(c1)c(NC(=O)Nc1ccccc1C(C)C)nn2Cc1cc2c(cc1Cl)OCO2` [Compound 13, 1-(1-((6-chlorobenzo[d][1,3]dioxol-5-yl)methyl)-5-methyl-1H-indazol-3-yl)-3-(2-isopropylphenyl)urea], the activity at 10 µM is less than 200%.

`O=C(Nc1ccc(N2CCCCC2)cc1)c1nn(CCCOc2ccccc2)c2ccccc12` [Compound 14, 1-(3-phenoxypropyl)-N-(4-(piperidin-1-yl)phenyl)-1H-indazole-3-carboxamide]: the activity at 10 µM fell in the range of 301 to 400%. `Cc1cccc(NC(=O)Nc2nn(Cc3ccc(C(F)(F)F)cc3)c3ccccc23)c1` [Compound 15, 1-m-tolyl-3-(1-(4-(trifluoromethyl)benzyl)-1H-indazol-3-yl)urea]: the activity at 10 µM was less than 200%.

For `O=C(Nc1nccs1)c1nn(CCCOc2ccccc2)c2ccccc12` [Compound 16, 1-(3-phenoxypropyl)-N-(thiazol-2-yl)-1H-indazole-3-carboxamide], the activity at 10 µM was more than 401%.

As to `O=C(Nc1nc2ccccc2s1)c1nn(Cc2ccc(C(=O)N3CCOCC3)cc2)c2ccccc12` [Compound 17, N-(benzo[d]thiazol-2-yl)-1-(4-(morpholine-4-carbonyl)benzyl)-1H-indazole-3-carboxamide], the activity at 10 µM lay within 201 to 300%. On to `CS(=O)(=O)c1ccc(Cn2nc(C(=O)Nc3ccc(N4CCCCC4)cc3)c3ccccc32)cc1` [Compound 18, 1-(4-(methylsulfonyl)benzyl)-N-(4-(piperidin-1-yl)phenyl)-1H-indazole-3-carboxamide], for which the activity at 10 µM lay in the range of 201 to 300%. As to `CC(C)c1ccc(NC(=O)c2nn(Cc3ccc(C(=O)N4CCOCC4)cc3)c3ccccc23)cc1` [Compound 19, N-(4-isopropylphenyl)-1-(4-(morpholine-4-carbonyl)benzyl)-1H-indazole-3-carboxamide], the activity at 10 µM was more than 401%. Consider `CN(Cc1ccccc1)C(=O)c1ccc(Cn2nc(C(=O)Nc3ccc(C(F)(F)F)cc3)c3ccccc32)cc1` [Compound 20, 1-(4-(benzyl(methyl)carbamoyl)benzyl)-N-(4-(trifluoromethyl)phenyl)-1H-indazole-3-carboxamide], for which the activity at 10 µM was less than 200%.

Take `C#CCN(C)S(=O)(=O)c1ccc(Cn2nc(C(=O)Nc3ccc4c(c3)OCO4)c3ccccc32)cc1` [Compound 21, N-(benzo[d][1,3]dioxol-5-yl)-1-(4-(N-methyl-N-(prop-2-ynyl)sulfamoyl)benzyl)-1H-indazole-3-carboxamide]: the activity at 10 µM was more than 401%.

Turning to `CC(C)c1ccc(NC(=O)c2nn(Cc3ccc(C(=O)N(C)Cc4ccccc4)cc3)c3ccccc23)cc1` [Compound 22, 1-(4-(benzyl(methyl)carbamoyl)benzyl)-N-(4-isopropylphenyl)-1H-indazole-3-carboxamide], the activity at 10 µM is less than 200%. As for `CS(=O)(=O)c1ccc(Cn2nc(C(=O)Nc3ccc(OC(F)(F)F)cc3)c3ccccc32)cc1` [Compound 23, 1-(4-(methylsulfonyl)benzyl)-N-(4-(trifluoromethoxy)phenyl)-1H-indazole-3-carboxamide], the activity at 10 µM is less than 200%. Take `CN(c1ccccc1)S(=O)(=O)c1ccc(Cn2nc(C(=O)NOCc3ccccc3)c3ccccc32)cc1` [Compound 24, N-(benzyloxy)-1-(4-(N-methyl-N-phenylsulfamoyl)benzyl)-1H-indazole-3-carboxamide]: the activity at 10 µM is less than 200%. As for `O=C(Nc1ccc2c(c1)OC(F)(F)O2)c1nn(Cc2ccc(C(=O)N3CCOCC3)cc2)c2ccccc12` [Compound 25, N-(2,2-difluorobenzo[d][1,3]dioxol-5-yl)-1-(4-(morpholine-4-carbonyl)benzyl)-1H-indazole-3-carboxamide], the activity at 10 µM is more than 401%.

In the case of `CC(C)c1ccc(NC(=O)c2nn(CCOc3ccccc3)c3ccccc23)cc1` [Compound 26, N-(4-isopropylphenyl)-1-(2-phenoxyethyl)-1H-indazole-3-carboxamide], the activity at 10 µM is less than 200%. As for `CC(C)c1ccc(NC(=O)c2nn(Cc3ccc(-c4ccccc4)cc3)c3ccccc23)cc1` [Compound 27, 1-(biphenyl-4-ylmethyl)-N-(4-isopropylphenyl)-1H-indazole-3-carboxamide], the activity at 10 µM was less than 200%. Consider `COc1cccc(OCc2ccc(Cn3nc(NC(=O)NCc4ccccc4F)c4ccccc43)cc2)c1` [Compound 28, 1-(2-fluorobenzyl)-3-(1-(4-((3-methoxyphenoxy)methyl)benzyl)-1H-indazol-3-yl)urea], for which the activity at 10 µM is 201 to 300%. Regarding `O=C(Nc1ccccc1C(F)(F)F)Nc1nn(Cc2ccc(COc3ccc4c(c3)OCO4)cc2)c2ccc(C(F)(F)F)cc12` [Compound 29, 1-(1-(4-((benzo[d][1,3]dioxol-5-yloxy)methyl)benzyl)-5-(trifluoromethyl)-1H-indazol-3-yl)-3-(2-(trifluoromethyl)phenyl)urea], the activity at 10 µM is less than 200%. The figure for `COc1cccc(OCc2ccc(Cn3nc(NC(=O)Nc4ccc5c(c4)CCC5)c4ccccc43)cc2)c1` [Compound 30, 1-(2,3-dihydro-1H-inden-5-yl)-3-(1-(4-((3-methoxyphenoxy)methyl)benzyl)-1H-indazol-3-yl)urea] is less than 200%; for `COc1ccc(NC(=O)Nc2nn(Cc3ccc(COc4ccc5c(c4)OCO5)cc3)c3ccc(C(F)(F)F)cc23)c(OC)c1` [Compound 31, 1-(1-(4-((benzo[d][1,3]dioxol-5-yloxy)methyl)benzyl)-5-(trifluoromethyl)-1H-indazol-3-yl)-3-(2,4-dimethoxyphenyl)urea] it is less than 200%.
